From PubChem BioAssay (NCI)
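All cell lines were grown in 96-well plates and treated with compound for 48 hours. Definition used: TGI = concentration required for complete inhibition of growth.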

Columns and labels:
Assay in all cases: NCI anticancer screen, dose series, 48 h
786-0 renal = tested on: 786-0 renal
SK-MEL-28 melanoma = tested on: SK-MEL-28 melanoma
CCRF-CEM leukemia = tested on: CCRF-CEM leukemia
A498 renal = tested on: A498 renal
RPMI-8226 leukemia = tested on: RPMI-8226 leukemia
K-562 leukemia = tested on: K-562 leukemia
NCI-H460 lung = tested on: NCI-H460 lung
PC-3 prostate = tested on: PC-3 prostate
MOLT-4 leukemia = tested on: MOLT-4 leukemia
MDA-MB-435 = tested on: MDA-MB-435
HOP-62 NSCLC = tested on: HOP-62 NSCLC
DU-145 prostate = tested on: DU-145 prostate
SF-295 CNS = tested on: SF-295 CNS
M14 melanoma = tested on: M14 melanoma
HCC-2998 colon = tested on: HCC-2998 colon
SF-268 CNS = tested on: SF-268 CNS
NCI-H522 lung = tested on: NCI-H522 lung
ACHN renal = tested on: ACHN renal
SNB-19 CNS = tested on: SNB-19 CNS
KM12 colon = tested on: KM12 colon
UACC-257 melanoma = tested on: UACC-257 melanoma
SF-539 CNS = tested on: SF-539 CNS
BT-549 breast = tested on: BT-549 breast
MALME-3M melanoma = tested on: MALME-3M melanoma
MDA-MB-231 breast = tested on: MDA-MB-231 breast
SK-MEL-5 melanoma = tested on: SK-MEL-5 melanoma
SNB-75 CNS = tested on: SNB-75 CNS
CAKI-1 renal = tested on: CAKI-1 renal
MDA-N = tested on: MDA-N
EKVX NSCLC = tested on: EKVX NSCLC
NCI-H226 lung = tested on: NCI-H226 lung
UO-31 renal = tested on: UO-31 renal
LOX IMVI melanoma = tested on: LOX IMVI melanoma
SW-620 colon = tested on: SW-620 colon
NCI-H23 lung = tested on: NCI-H23 lung
A549 NSCLC = tested on: A549 NSCLC
HT29 colon = tested on: HT29 colon
HCT-116 colon = tested on: HCT-116 colon
COLO 205 colon = tested on: COLO 205 colon
TK-10 renal = tested on: TK-10 renal
SR leukemia = tested on: SR leukemia
HL-60(TB) leukemia = tested on: HL-60(TB) leukemia
HCT-15 colon = tested on: HCT-15 colon
SK-OV-3 ovarian = tested on: SK-OV-3 ovarian
UACC-62 melanoma = tested on: UACC-62 melanoma
MCF7 breast = tested on: MCF7 breast
OVCAR-8 ovarian = tested on: OVCAR-8 ovarian
IGROV1 ovarian = tested on: IGROV1 ovarian
SN12C renal = tested on: SN12C renal
T-47D breast = tested on: T-47D breast
HS 578T breast = tested on: HS 578T breast
U251 CNS = tested on: U251 CNS
RXF 393 renal = tested on: RXF 393 renal
OVCAR-4 ovarian = tested on: OVCAR-4 ovarian
OVCAR-3 ovarian = tested on: OVCAR-3 ovarian
HOP-92 NSCLC = tested on: HOP-92 NSCLC
SK-MEL-2 melanoma = tested on: SK-MEL-2 melanoma
OVCAR-5 ovarian = tested on: OVCAR-5 ovarian
NCI/ADR-RES ovarian = tested on: NCI/ADR-RES ovarian

CC1=NC(=Cc2ccc(Cl)cc2)C(=O)N1n1c(-c2ccccc2)nc2ccccc2c1=O
TGI (786-0 renal): > 100 µM
TGI (SK-MEL-28 melanoma): > 100 µM
TGI (CCRF-CEM leukemia): > 100 µM
TGI (A498 renal): 63.4 µM
TGI (RPMI-8226 leukemia): > 100 µM
TGI (K-562 leukemia): > 100 µM
TGI (NCI-H460 lung): 60.7 µM
TGI (PC-3 prostate): > 100 µM
TGI (MOLT-4 leukemia): > 100 µM
TGI (MDA-MB-435): > 100 µM
TGI (HOP-62 NSCLC): > 100 µM
TGI (DU-145 prostate): > 100 µM
TGI (SF-295 CNS): > 100 µM
TGI (M14 melanoma): > 100 µM
TGI (HCC-2998 colon): > 100 µM
TGI (SF-268 CNS): > 100 µM
TGI (NCI-H522 lung): 43 µM
TGI (ACHN renal): 46.7 µM
TGI (SNB-19 CNS): > 100 µM
TGI (KM12 colon): > 100 µM
TGI (UACC-257 melanoma): 75.5 µM
TGI (SF-539 CNS): > 100 µM
TGI (BT-549 breast): > 100 µM
TGI (MALME-3M melanoma): > 100 µM
TGI (MDA-MB-231 breast): > 100 µM
TGI (SK-MEL-5 melanoma): > 100 µM
TGI (SNB-75 CNS): 99.6 µM
TGI (CAKI-1 renal): 69.1 µM
TGI (MDA-N): > 100 µM
TGI (EKVX NSCLC): > 100 µM
TGI (NCI-H226 lung): > 100 µM
TGI (UO-31 renal): > 100 µM
TGI (LOX IMVI melanoma): > 100 µM
TGI (SW-620 colon): > 100 µM
TGI (NCI-H23 lung): 96 µM
TGI (A549 NSCLC): > 100 µM
TGI (HT29 colon): > 100 µM
TGI (HCT-116 colon): > 100 µM
TGI (COLO 205 colon): > 100 µM
TGI (TK-10 renal): > 100 µM
TGI (SR leukemia): > 100 µM
TGI (HL-60(TB) leukemia): 78.6 µM
TGI (HCT-15 colon): > 100 µM
TGI (SK-OV-3 ovarian): > 100 µM
TGI (UACC-62 melanoma): > 100 µM
TGI (MCF7 breast): > 100 µM
TGI (OVCAR-8 ovarian): > 100 µM
TGI (IGROV1 ovarian): > 100 µM
TGI (SN12C renal): > 100 µM
TGI (T-47D breast): 74.3 µM
TGI (HS 578T breast): 57.3 µM

CN(C)c1ccc(C2CC(=O)CC(c3ccc(N(C)C)cc3)C23C(=O)NC(=O)NC3=O)cc1 (stereo not given)
TGI (786-0 renal): > 25 µM
TGI (SK-MEL-28 melanoma): > 25 µM
TGI (U251 CNS): > 25 µM
TGI (CCRF-CEM leukemia): > 25 µM
TGI (RXF 393 renal): > 25 µM
TGI (RPMI-8226 leukemia): > 25 µM
TGI (OVCAR-4 ovarian): > 25 µM
TGI (K-562 leukemia): > 25 µM
TGI (NCI-H460 lung): > 25 µM
TGI (OVCAR-3 ovarian): > 25 µM
TGI (PC-3 prostate): > 25 µM
TGI (MOLT-4 leukemia): > 25 µM
TGI (MDA-MB-435): > 25 µM
TGI (HOP-62 NSCLC): > 25 µM
TGI (HOP-92 NSCLC): 19 µM
TGI (DU-145 prostate): > 25 µM
TGI (SF-295 CNS): > 25 µM
TGI (M14 melanoma): > 25 µM
TGI (HCC-2998 colon): > 25 µM
TGI (SF-268 CNS): > 25 µM
TGI (NCI-H522 lung): > 25 µM
TGI (ACHN renal): > 25 µM
TGI (SNB-19 CNS): > 25 µM
TGI (KM12 colon): > 25 µM
TGI (UACC-257 melanoma): > 25 µM
TGI (SF-539 CNS): > 25 µM
TGI (BT-549 breast): > 25 µM
TGI (MALME-3M melanoma): > 25 µM
TGI (MDA-MB-231 breast): > 25 µM
TGI (SK-MEL-5 melanoma): > 25 µM
TGI (SNB-75 CNS): > 25 µM
TGI (SK-MEL-2 melanoma): > 25 µM
TGI (CAKI-1 renal): > 25 µM
TGI (MDA-N): > 25 µM
TGI (EKVX NSCLC): > 25 µM
TGI (NCI-H226 lung): > 25 µM
TGI (UO-31 renal): > 25 µM
TGI (LOX IMVI melanoma): > 25 µM
TGI (SW-620 colon): > 25 µM
TGI (NCI-H23 lung): > 25 µM
TGI (HT29 colon): > 25 µM
TGI (HCT-116 colon): > 25 µM
TGI (COLO 205 colon): > 25 µM
TGI (TK-10 renal): > 25 µM
TGI (OVCAR-5 ovarian): > 25 µM
TGI (SR leukemia): > 25 µM
TGI (HL-60(TB) leukemia): > 25 µM
TGI (HCT-15 colon): > 25 µM
TGI (UACC-62 melanoma): > 25 µM
TGI (MCF7 breast): > 25 µM
TGI (NCI/ADR-RES ovarian): > 25 µM
TGI (OVCAR-8 ovarian): > 25 µM
TGI (IGROV1 ovarian): > 25 µM
TGI (SN12C renal): > 25 µM
TGI (T-47D breast): > 25 µM

Cc1c(CCN=P(c2ccccc2)(c2ccccc2)c2ccccc2)c(=O)n2c([nH]c3ccccc32)c1C#N
TGI (786-0 renal): > 10 µM
TGI (SK-MEL-28 melanoma): > 10 µM
TGI (CCRF-CEM leukemia): > 10 µM
TGI (RXF 393 renal): > 10 µM
TGI (RPMI-8226 leukemia): > 10 µM
TGI (K-562 leukemia): > 10 µM
TGI (PC-3 prostate): > 10 µM
TGI (MOLT-4 leukemia): > 10 µM
TGI (HOP-62 NSCLC): > 10 µM
TGI (DU-145 prostate): > 10 µM
TGI (SF-295 CNS): > 10 µM
TGI (M14 melanoma): > 10 µM
TGI (HCC-2998 colon): > 10 µM
TGI (SF-268 CNS): > 10 µM
TGI (KM12 colon): > 10 µM
TGI (UACC-257 melanoma): > 10 µM
TGI (MALME-3M melanoma): > 10 µM
TGI (MDA-MB-231 breast): > 10 µM
TGI (SK-MEL-5 melanoma): > 10 µM
TGI (SNB-75 CNS): > 10 µM
TGI (CAKI-1 renal): > 10 µM
TGI (MDA-N): > 10 µM
TGI (EKVX NSCLC): > 10 µM
TGI (LOX IMVI melanoma): > 10 µM
TGI (SW-620 colon): > 10 µM
TGI (NCI-H23 lung): > 10 µM
TGI (A549 NSCLC): > 10 µM
TGI (HT29 colon): > 10 µM
TGI (COLO 205 colon): > 10 µM
TGI (TK-10 renal): > 10 µM
TGI (SR leukemia): > 10 µM
TGI (HL-60(TB) leukemia): > 10 µM
TGI (HCT-15 colon): > 10 µM
TGI (SK-OV-3 ovarian): > 10 µM
TGI (UACC-62 melanoma): > 10 µM
TGI (MCF7 breast): > 10 µM
TGI (OVCAR-8 ovarian): > 10 µM
TGI (IGROV1 ovarian): > 10 µM
TGI (SN12C renal): > 10 µM
TGI (T-47D breast): > 10 µM

COc1cc(C2c3cccc4cccc(c34)C3CCC(=O)N32)cc(O)c1O (stereo not given)
TGI (786-0 renal): > 50 µM
TGI (SK-MEL-28 melanoma): > 50 µM
TGI (U251 CNS): > 50 µM
TGI (CCRF-CEM leukemia): 31.4 µM
TGI (RXF 393 renal): > 50 µM
TGI (A498 renal): > 50 µM
TGI (RPMI-8226 leukemia): 30.9 µM
TGI (OVCAR-4 ovarian): 45 µM
TGI (K-562 leukemia): 40.3 µM
TGI (NCI-H460 lung): > 50 µM
TGI (OVCAR-3 ovarian): > 50 µM
TGI (PC-3 prostate): > 50 µM
TGI (MOLT-4 leukemia): 41.6 µM
TGI (MDA-MB-435): > 50 µM
TGI (HOP-62 NSCLC): > 50 µM
TGI (HOP-92 NSCLC): > 50 µM
TGI (DU-145 prostate): > 50 µM
TGI (SF-295 CNS): > 50 µM
TGI (M14 melanoma): > 50 µM
TGI (ACHN renal): > 50 µM
TGI (SNB-19 CNS): > 50 µM
TGI (KM12 colon): > 50 µM
TGI (UACC-257 melanoma): > 50 µM
TGI (SF-539 CNS): > 50 µM
TGI (BT-549 breast): > 50 µM
TGI (SNB-75 CNS): > 50 µM
TGI (SK-MEL-2 melanoma): > 50 µM
TGI (MDA-N): > 50 µM
TGI (EKVX NSCLC): > 50 µM
TGI (NCI-H226 lung): > 50 µM
TGI (UO-31 renal): > 50 µM
TGI (SW-620 colon): > 50 µM
TGI (NCI-H23 lung): > 50 µM
TGI (A549 NSCLC): > 50 µM
TGI (HT29 colon): > 50 µM
TGI (HCT-116 colon): > 50 µM
TGI (COLO 205 colon): > 50 µM
TGI (OVCAR-5 ovarian): > 50 µM
TGI (SR leukemia): 29.5 µM
TGI (HL-60(TB) leukemia): > 50 µM
TGI (HCT-15 colon): > 50 µM
TGI (SK-OV-3 ovarian): > 50 µM
TGI (UACC-62 melanoma): > 50 µM
TGI (MCF7 breast): > 50 µM
TGI (NCI/ADR-RES ovarian): > 50 µM
TGI (OVCAR-8 ovarian): > 50 µM
TGI (IGROV1 ovarian): > 50 µM
TGI (SN12C renal): > 50 µM
TGI (T-47D breast): > 50 µM
